# Test results published in patent publication US20110152267A1, “Compositions and Methods for Treating Hyperproliferative Disorders” (Texas Tech University System, priority 2009, published 2011).
# What was measured:
# Format in all cases: cell-based, human
# [1] = test system: A-549 lung adenocarcinoma cell line; assay: DIMSCAN cytotoxicity, fenretinide + L-threo-sphinganines 3:1 (Example B13); settings: 96 h
# Description: (§1) Cytotoxicity Assay—Once again, cytotoxicity is determined using the DIMSCAN assay system (R. Proffitt et al., Cytometry 24, 204-213 (1996); T. Frgala et al., Mol Cancer Ther. 6:886-97, 2007). The system employs digital imaging microscopy to quantify viable cells, which selectively accumulate fluorescein diacetate to become brightly fluorescent. The system is capable of measuring cytotoxicity over a 4-5 log dynamic range by quenching the residual fluorescence of dead and dying cells with eosin Y and quantifying the total fluorescence of viable cells using digital thresholding. Measured fluorescence is directly proportionate to the number of viable cells. A comparison of the total fluorescence of a drug-treated cell population to the fluorescence of a similar number of untreated cells yields a survival fraction. In brief, 2000 to 10,000 cells/well (depending on size and growth rates) are replicate plated into 60 wells of a 96-well tissue culture plate in 0.1 mL of whole medium and allowed to attach overnight. Drug(s) are then added in 0.05 mL of whole medium to the final concentrations indicated. Drugs (fenretinide, and various chain length L-threo-sphinganines) were tested both as single agents and in a 3:1 ratio of fenretinide:sphinganine. C18-L-threo-sphinganine, or “safingol,” was also tested and results shown for reference. There are 12 wells treated per drug concentration. Twelve wells receive drug vehicle-only to the appropriate final concentration and serve as controls for the plate. Cells are incubated for 96 hours at 37° C. in ambient air with 5% CO2. Fluorescein diacetate is then added to each well in 0.05 mL media to a final concentration of 8 microgram/mL. Cells are incubated for a further 15 minutes at 37° C. and 0.03 mL of 0.5% eosin Y is added to each well. Total fluorescence of viable cells is then measured by digital imaging microscopy. Results were graphed as the ratio of the fluoresecence of drug-treated wells to non-drug treated control wells (i.e., Survival Fraction). All tests were performed at least twice. Representative results are shown.
# (§2) The Combination Index (CI) is a term to describe mathematical modeling of the pharmacologic effects on cytotoxicity (cell death) of two drugs in combination based. Cytotoxic “synergy” is defined as a cell death affect which is greater than would be expected from a simple product of the single agent cytotoxicities alone (i.e. an “additive” effect). By Chou-Talalay analysis, a CI<0.9 on a Fraction Affected (“Fa”, i.e. fraction of cells killed) indicates synergy, with smaller numbers indicating greater synergy; a CI of 0.9-1.1 signifies an additive or near-additive effect; and a CI>1.1 means the drug combination is antagonistic.
# Fenretinide and L-threo-sphinganines tested in human lung adenocarcinoma (lung cancer) cell line, A-549.
# [2] = test system: A-2058 melanoma cell line; assay: DIMSCAN cytotoxicity, fenretinide + L-threo-sphinganines 3:1 (Example B11); settings: 96 h
# Description: as §1, §2
# Fenretinide and L-threo-sphinganines tested in human melanoma (skin cancer) cell line, A-2058.
# [3] = test system: PANC-1 pancreatic adenocarcinoma cell line; assay: DIMSCAN cytotoxicity, fenretinide + L-threo-sphinganines 3:1 (Example B18)
# Description: as §1, §2
# Fenretinide and L-threo-sphinganines tested in human pancreatic adenocarcinoma (pancreas cancer) cell line, PANC-1.
# [4] = test system: SJ-GBM2 Glioblastoma multiforme cell line; assay: DIMSCAN cytotoxicity, fenretinide + L-threo-sphinganines 3:1 (Example B7); set-up: key to CI (Combination Index): Chou-Talalay CI: <0.9 synergy, 0.9-1.1 additive, >1.1 antagonism; settings: 96 h
# Description: as §1, §2
# Fenretinide and L-threo-sphinganines tested in human Glioblastoma multiforme (brain cancer) cell line, SJ-GBM2.
# [5] = test system: A-172 Glioblastoma multiforme cell line; assay: DIMSCAN cytotoxicity, fenretinide + L-threo-sphinganines 3:1 (Example B4); set-up: key to CI (Combination Index): Chou-Talalay CI: <0.9 synergy, 0.9-1.1 additive, >1.1 antagonism; settings: 96 h
# Description: as §1, §2
# Fenretinide and L-threo-sphinganines tested in human Glioblastoma multiforme (brain cancer) cell line, A-172.
# [6] = test system: RPMI-8226 Multiple Myeloma cell line; assay: DIMSCAN cytotoxicity, fenretinide + L-threo-sphinganines 3:1 (Example B2); settings: 96 h
# Description: as §1, §2
# Fenretinide and L-threo-sphinganines tested in human Multiple Myeloma (a cancer of the blood and bone marrow) cell line, RPMI-8226.
# [7] = test system: PC-3 prostate adenocarcinoma cell line; assay: DIMSCAN cytotoxicity, fenretinide + L-threo-sphinganines 3:1 (Example B17)
# Description: as §1, §2
# Fenretinide and L-threo-sphinganines tested in human prostate adenocarcinoma (prostate cancer) cell line, PC-3.
# [8] = test system: T98G Glioblastoma multiforme cell line; assay: DIMSCAN cytotoxicity, fenretinide + L-threo-sphinganines 3:1 (Example B6); settings: 96 h
# Description: as §1, §2
# Fenretinide and L-threo-sphinganines tested in human Glioblastoma multiforme (brain cancer) cell line, T98G.
# [9] = 4-HPR 1.5 μM + L-threo-sphinganine 0.5 μM
# [10] = 4-HPR 3 μM + L-threo-sphinganine 1 μM
# [11] = 4-HPR 6 μM + L-threo-sphinganine 2 μM
# [12] = 4-HPR 9 μM + L-threo-sphinganine 3 μM
smiles,measurement,setting,value
"CCCCCCCCCCCCCCCCC[C@H](O)[C@@H](N)CO [C20, (2S,3S)-2-amino-1,3-icosanediol]",CI (Combination Index),[1]; [9],2.1
same,Fa (fraction affected),[1]; [9],0.000
same,CI (Combination Index),[1]; [10],4.1
same,Fa (fraction affected),[1]; [10],0.000
same,CI (Combination Index),[1]; [11],1.1
same,Fa (fraction affected),[1]; [11],0.017
same,CI (Combination Index),[1]; [12],1.1
same,Fa (fraction affected),[1]; [12],0.499
same,CI (Combination Index),[2]; [9],0.7
same,Fa (fraction affected),[2]; [9],0.311
same,CI (Combination Index),[2]; [10],1.0
same,Fa (fraction affected),[2]; [10],0.742
same,CI (Combination Index),[2]; [11],1.7
same,Fa (fraction affected),[2]; [11],0.870
same,CI (Combination Index),[2]; [12],0.5
same,Fa (fraction affected),[2]; [12],1.000
same,CI,[3]; [9],1.9
same,Fa,[3]; [9],0.136
same,CI,[3]; [10],1.9
same,Fa,[3]; [10],0.291
same,CI,[3]; [11],1.2
same,Fa,[3]; [11],0.653
same,CI,[3]; [12],0.1
same,Fa,[3]; [12],0.990
same,CI (Combination Index),[4]; [9],0.5
same,Fa (fraction affected),[4]; [9],0.055
same,CI (Combination Index),[4]; [10],0.6
same,Fa (fraction affected),[4]; [10],0.737
same,CI (Combination Index),[4]; [11],0.7
same,Fa (fraction affected),[4]; [11],0.998
same,CI (Combination Index),[4]; [12],0.3
same,Fa (fraction affected),[4]; [12],1.000
same,CI (Combination Index),[5]; [9],2.8
same,Fa (fraction affected),[5]; [9],0.039
same,CI (Combination Index),[5]; [10],1.0
same,Fa (fraction affected),[5]; [10],0.594
same,CI (Combination Index),[5]; [11],0.6
same,Fa (fraction affected),[5]; [11],0.983
same,CI (Combination Index),[5]; [12],>0.1
same,Fa (fraction affected),[5]; [12],1.000
same,CI (Combination Index),[6]; [9],1.0
same,Fa (fraction affected),[6]; [9],0.583
same,CI (Combination Index),[6]; [10],1.1
same,Fa (fraction affected),[6]; [10],0.867
same,CI (Combination Index),[6]; [11],0.9
same,Fa (fraction affected),[6]; [11],0.996
same,CI (Combination Index),[6]; [12],0.3
same,Fa (fraction affected),[6]; [12],1
same,CI,[7]; [9],1.0
same,Fa,[7]; [9],0.217
same,CI,[7]; [10],1.1
same,Fa,[7]; [10],0.393
same,CI,[7]; [11],1.2
same,Fa,[7]; [11],0.620
same,CI,[7]; [12],0.5
same,Fa,[7]; [12],0.916
same,CI (Combination Index),[8]; [9],2.4
same,Fa (fraction affected),[8]; [9],0.397
same,CI (Combination Index),[8]; [10],0.2
same,Fa (fraction affected),[8]; [10],0.989
same,CI (Combination Index),[8]; [11],>0.1
same,Fa (fraction affected),[8]; [11],1.000
same,CI (Combination Index),[8]; [12],>0.1
same,Fa (fraction affected),[8]; [12],1.000
CCCCCCCCCCCC[C@H](O)[C@@H](N)CO [C15],CI (Combination Index),[1]; [9],1.9
same,Fa (fraction affected),[1]; [9],0.000
same,CI (Combination Index),[1]; [10],2.1
same,Fa (fraction affected),[1]; [10],0.000
same,CI (Combination Index),[1]; [11],0.9
same,Fa (fraction affected),[1]; [11],0.044
same,CI (Combination Index),[1]; [12],0.8
same,Fa (fraction affected),[1]; [12],0.342
same,CI (Combination Index),[2]; [9],0.5
same,Fa (fraction affected),[2]; [9],0.053
same,CI (Combination Index),[2]; [10],0.9
same,Fa (fraction affected),[2]; [10],0.106
same,CI (Combination Index),[2]; [11],1.6
same,Fa (fraction affected),[2]; [11],0.262
same,CI (Combination Index),[2]; [12],1.7
same,Fa (fraction affected),[2]; [12],0.867
same,CI,[3]; [9],2.9
same,Fa,[3]; [9],0.078
same,CI,[3]; [10],2.2
same,Fa,[3]; [10],0.205
same,CI,[3]; [11],1.7
same,Fa,[3]; [11],0.486
same,CI,[3]; [12],0.2
same,Fa,[3]; [12],0.978
same,CI (Combination Index),[4]; [9],1.7
same,Fa (fraction affected),[4]; [9],0.086
same,CI (Combination Index),[4]; [10],1.1
same,Fa (fraction affected),[4]; [10],0.301
same,CI (Combination Index),[4]; [11],0.9
same,Fa (fraction affected),[4]; [11],0.765
same,CI (Combination Index),[4]; [12],1.0
same,Fa (fraction affected),[4]; [12],0.953
same,CI (Combination Index),[5]; [9],23.7
same,Fa (fraction affected),[5]; [9],0.001
same,CI (Combination Index),[5]; [10],1.4
same,Fa (fraction affected),[5]; [10],0.378
same,CI (Combination Index),[5]; [11],0.4
same,Fa (fraction affected),[5]; [11],0.991
same,CI (Combination Index),[5]; [12],0.4
same,Fa (fraction affected),[5]; [12],0.998
same,CI (Combination Index),[6]; [9],1.0
same,Fa (fraction affected),[6]; [9],0.518
same,CI (Combination Index),[6]; [10],1.1
same,Fa (fraction affected),[6]; [10],0.75
same,CI (Combination Index),[6]; [11],0.5
same,Fa (fraction affected),[6]; [11],0.978
same,CI (Combination Index),[6]; [12],0.2
same,Fa (fraction affected),[6]; [12],0.998
same,CI,[7]; [9],0.6
same,Fa,[7]; [9],0.200
same,CI,[7]; [10],0.9
same,Fa,[7]; [10],0.287
same,CI,[7]; [11],1.2
same,Fa,[7]; [11],0.417
same,CI,[7]; [12],1.0
same,Fa,[7]; [12],0.621
same,CI (Combination Index),[8]; [9],1.3
same,Fa (fraction affected),[8]; [9],0.516
same,CI (Combination Index),[8]; [10],1.3
same,Fa (fraction affected),[8]; [10],0.683
same,CI (Combination Index),[8]; [11],1.0
same,Fa (fraction affected),[8]; [11],0.849
same,CI (Combination Index),[8]; [12],0.4
same,Fa (fraction affected),[8]; [12],0.962
